Assay results: ChEMBL document CHEMBL5625245, “Novel ProTide prodrugs of 5-fluoro-2'-deoxyuridine for the treatment of liver cancer” (Eur J Med Chem, 2023)
Activity calls are given as the source filed them. No cut-off for these calls is given here.

Tests used:
Bel-7402 [1] = assay: Antiproliferative activity against human Bel-7402 cells assessed as reduction in cell viability at 20 uM measured after 48 hrs by MTT assay; assay type: functional, cell-based
HepG2 [2] = assay: Antiproliferative activity against human HepG2 cells assessed as reduction in cell viability at 20 uM measured after 48 hrs by MTT assay relative to control; assay type: functional
Bel-7402 [3] = assay: Antiproliferative activity against human Bel-7402 cells assessed as reduction in cell viability at 20 uM measured after 48 hrs by MTT assay relative to control; assay type: functional
Bel-7402 [4] = assay: Antiproliferative activity against human Bel-7402 cells assessed as reduction in cell viability measured after 48 to 72 hrs by MTT assay; assay type: functional, cell-based
HepG2 [5] = assay: Antiproliferative activity against human HepG2 cells assessed as reduction in cell viability measured after 48 to 72 hrs by MTT assay; assay type: functional, cell-based
[6] = Antiproliferative activity against human L02 cells assessed as reduction in cell viability measured after 48 to 72 hrs by MTT assay; assay type: toxicity, cell-based
[7] = Antiproliferative activity against human NCM460 cells assessed as reduction in cell viability measured after 48 to 72 hrs by MTT assay; assay type: toxicity, cell-based
HepG2 [8] = assay: Antitumor activity against human HepG2 cells xenografted in mouse model assessed as tumor growth inhibition at 150 mg/kg/day for 7 days relative to control; assay type: functional; details: HepG2, 168 h, time 7 day, read-out: TGI
Bel-7402 [9] = assay: Antiproliferative activity against human Bel-7402 cells assessed as reduction in cell viability at 20 uM measured after 48 to 72 hrs in presence of 5-Fluorouracil by MTT assay; assay type: functional, cell-based; details: time 48-72 hrs
HepG2 [10] = assay: Antiproliferative activity against human HepG2 cells assessed as reduction in cell viability at 20 uM measured after 48 to 72 hrs in presence of 5-Fluorouracil by MTT assay; assay type: functional, cell-based; details: time 48-72 hrs
HepG2 [11] = assay: Antitumor activity against human HepG2 cells xenografted in mouse model assessed as tumor growth inhibition at 100 mg/kg/day for 7 days relative to control; assay type: functional; details: HepG2, 168 h, time 7 day, read-out: TGI
HepG2 [12] = assay: Antitumor activity against human HepG2 cells xenografted in orthotopic mouse model assessed as average number of tumor at 60 mg/kg, iv administered twice daily for 18 days in presence of 5-Fluorouracil (reference value: 49+/3.6 mM); assay type: functional; details: time 18 day
HepG2 [13] = assay: Antitumor activity against human HepG2 cells xenografted in orthotopic mouse model assessed as tumor growth inhibition at 60 mg/kg, iv administered twice daily for 18 days in presence of 5-Fluorouracil relative to control; assay type: functional; details: HepG2, 432 h, time 18 day, read-out: TGI
[14] = Toxicity in orthotopic mouse assessed as effect on body weight at 60 mg/kg, iv administered twice daily for 18 days; assay type: organism-based; details: in vivo, 432 h, time 18 day
[15] = Toxicity in orthotopic mouse assessed as effect on drug tolerance at 60 mg/kg, iv administered twice daily for 18 days; assay type: organism-based; details: in vivo, 432 h, time 18 day
[16] = Toxicity in orthotopic mouse assessed as effect on heart at 60 mg/kg, iv administered twice daily for 18 days by H and E staining based analysis; assay type: organism-based; details: in vivo, 432 h, time 18 day
[17] = Toxicity in orthotopic mouse assessed as effect on liver at 60 mg/kg, iv administered twice daily for 18 days by H and E staining based analysis; assay type: organism-based; details: in vivo, 432 h, time 18 day
[18] = Toxicity in orthotopic mouse assessed as effect on spleen at 60 mg/kg, iv administered twice daily for 18 days by H and E staining based analysis; assay type: organism-based; details: in vivo, 432 h, time 18 day
[19] = Toxicity in orthotopic mouse assessed as effect on lung at 60 mg/kg, iv administered twice daily for 18 days by H and E staining based analysis; assay type: organism-based; details: in vivo, 432 h, time 18 day
[20] = Toxicity in orthotopic mouse assessed as effect on kidney at 60 mg/kg, iv administered twice daily for 18 days by H and E staining based analysis; assay type: organism-based; details: in vivo, 432 h, time 18 day
[21] = Toxicity in orthotopic mouse assessed as change in liver weight at 60 mg/kg, iv administered twice daily for 18 days; assay type: organism-based; details: in vivo, 432 h, time 18 day

IC50 (Bel-7402 [4])	IC50 (HepG2 [5])	SMILES	Activity (HepG2 [2])	Activity (Bel-7402 [3])	IC50 [6]	IC50 [7]	also measured
		CC(C)OC(=O)[C@H](C)N[P@](=O)(OC[C@H]1O[C@@H](n2cc(F)c(=O)[nH]c2=O)C[C@@H]1OC(=O)[C@@H](N)CC(=O)O)Oc1ccccc1					Activity (Bel-7402 [1]): Active
		CC(C)OC(=O)[C@H](C)N[P@](=O)(OC[C@H]1O[C@@H](n2cc(F)c(=O)[nH]c2=O)C[C@@H]1OC(=O)OC(C)(C)C)Oc1ccccc1	50%	50%			
8.99 µM	48.7 µM	CCC(C)[C@H](NC(=O)OC(C)(C)C)C(=O)O[C@H]1C[C@H](n2cc(F)c(=O)[nH]c2=O)O[C@@H]1CO[P@@](=O)(N[C@@H](C)C(=O)OC(C)C)Oc1ccccc1 (some centres undefined)		>60%	> 100 µM	> 100 µM	
9.68 µM	21.2 µM	CC(C)C[C@H](NC(=O)OC(C)(C)C)C(=O)O[C@H]1C[C@H](n2cc(F)c(=O)[nH]c2=O)O[C@@H]1CO[P@@](=O)(N[C@@H](C)C(=O)OC(C)C)Oc1ccccc1		>60%	> 100 µM	> 100 µM	
0.73 µM	0.59 µM	Cc1ccccc1CO[P@](=O)(N[C@@H](C)C(=O)OC(C)C)OC[C@H]1O[C@@H](n2cc(F)c(=O)[nH]c2=O)C[C@@H]1O			> 100 µM	> 100 µM	
		CC(C)C[C@H](N)C(=O)NCC(=O)O[C@H]1C[C@H](n2cc(F)c(=O)[nH]c2=O)O[C@@H]1CO[P@@](=O)(N[C@@H](C)C(=O)OC(C)C)Oc1ccccc1	50%	50%			
		CC(C)C[C@H](NC(=O)CNC(=O)OC(C)(C)C)C(=O)O[C@H]1C[C@H](n2cc(F)c(=O)[nH]c2=O)O[C@@H]1CO[P@@](=O)(N[C@@H](C)C(=O)OC(C)C)Oc1ccccc1	>50%				
		CC(C)C[C@H](N)C(=O)O[C@H]1C[C@H](n2cc(F)c(=O)[nH]c2=O)O[C@@H]1CO[P@@](=O)(N[C@@H](C)C(=O)OC(C)C)Oc1ccccc1					Activity (Bel-7402 [1]): Active
		CC(C)OC(=O)[C@H](C)N[P@](=O)(OC[C@H]1O[C@@H](n2cc(F)c(=O)[nH]c2=O)C[C@@H]1OC(=O)[C@H](Cc1ccccc1)NC(=O)[C@@H](N)C(C)C)Oc1ccccc1	50%	50%			
		CC(C)OC(=O)[C@H](C)N[P@](=O)(OC[C@H]1O[C@@H](n2cc(F)c(=O)[nH]c2=O)C[C@@H]1OC(=O)[C@H](C)N)Oc1ccccc1					Activity (Bel-7402 [1]): Active
		CC(C)OC(=O)[C@H](C)N[P@](=O)(OC[C@H]1O[C@@H](n2cc(F)c(=O)[nH]c2=O)C[C@@H]1OC(=O)CN)Oc1ccccc1					Activity (Bel-7402 [1]): Active
		CC(C)OC(=O)[C@H](C)N[P@](=O)(OC[C@H]1O[C@@H](n2cc(F)c(=O)[nH]c2=O)C[C@@H]1OC(=O)[C@@H](N)Cc1ccccc1)Oc1ccccc1					Activity (Bel-7402 [1]): Active
10.1 µM	17.5 µM	CC(C)OC(=O)[C@H](C)N[P@](=O)(OC[C@H]1O[C@@H](n2cc(F)c(=O)[nH]c2=O)C[C@@H]1OC(=O)CNC(=O)OC(C)(C)C)Oc1ccccc1	>50%	>60%	> 100 µM	> 100 µM	
9.11 µM	15.2 µM	CCC(C)[C@H](N)C(=O)O[C@H]1C[C@H](n2cc(F)c(=O)[nH]c2=O)O[C@@H]1CO[P@@](=O)(N[C@@H](C)C(=O)OC(C)C)Oc1ccccc1 (some centres undefined)	>50%		> 100 µM	> 100 µM	Activity (Bel-7402 [1]): Active
		CC(C)OC(=O)[C@H](C)N[P@](=O)(OC[C@H]1O[C@@H](n2cc(F)c(=O)[nH]c2=O)C[C@@H]1OC(=O)[C@H](C)NC(=O)CNC(=O)OC(C)(C)C)Oc1ccccc1	50%	50%			
		CC(C)OC(=O)[C@H](C)N[P@](=O)(OC[C@H]1O[C@@H](n2cc(F)c(=O)[nH]c2=O)C[C@@H]1OC(=O)[C@H](C)NC(=O)CN)Oc1ccccc1	50%	50%			
		CC(C)C[C@H](NC(=O)CN)C(=O)O[C@H]1C[C@H](n2cc(F)c(=O)[nH]c2=O)O[C@@H]1CO[P@@](=O)(N[C@@H](C)C(=O)OC(C)C)Oc1ccccc1	50%	50%			
		CC(C)C[C@H](NC(=O)OC(C)(C)C)C(=O)NCC(=O)O[C@H]1C[C@H](n2cc(F)c(=O)[nH]c2=O)O[C@@H]1CO[P@@](=O)(N[C@@H](C)C(=O)OC(C)C)Oc1ccccc1	50%	50%			
7.18 µM	28.7 µM	CC(C)OC(=O)[C@H](C)N[P@](=O)(OC[C@H]1O[C@@H](n2cc(F)c(=O)[nH]c2=O)C[C@@H]1OC(=O)[C@H](Cc1ccccc1)NC(=O)OC(C)(C)C)Oc1ccccc1		>60%	> 100 µM	> 100 µM	
3.77 µM	19.9 µM	CC(C)OC(=O)[C@H](C)N[P@](=O)(OC[C@H]1O[C@@H](n2cc(F)c(=O)[nH]c2=O)C[C@@H]1OC(=O)[C@H](CC(=O)OC(C)(C)C)NC(=O)OC(C)(C)C)Oc1ccccc1		>60%	> 100 µM	> 100 µM	
13.2 µM	34.1 µM	CC(C)OC(=O)[C@H](C)N[P@](=O)(OC[C@H]1O[C@@H](n2cc(F)c(=O)[nH]c2=O)C[C@@H]1OC(=O)[C@H](Cc1ccccc1)NC(=O)[C@@H](NC(=O)OC(C)(C)C)C(C)C)Oc1ccccc1			> 100 µM	> 100 µM	

SMILES	IC50 (Bel-7402 [4])	IC50 (HepG2 [5])	Activity (HepG2 [2])	Activity (Bel-7402 [3])	IC50 [6]	IC50 [7]	also measured
C[C@H](N[P@](=O)(OC[C@H]1O[C@@H](n2cc(F)c(=O)[nH]c2=O)C[C@@H]1O)Oc1cccc2ccccc12)C(=O)OCc1ccccc1	> 100 µM	> 100 µM	<10%	<10%	> 100 µM	> 100 µM	
CC(C)OC(=O)[C@H](C)N[P@](=O)(OC[C@H]1O[C@@H](n2cc(F)c(=O)[nH]c2=O)C[C@@H]1O)Oc1ccccc1	18.2 µM	36.2 µM			> 100 µM	> 100 µM	inhibition in vivo at 150 mg/kg/day (HepG2 [8]): 68%; Activity (Bel-7402 [9]): Active; Activity (HepG2 [10]): Active; inhibition in vivo at 100 mg/kg/day (HepG2 [11]): 52%; tumour count (HepG2 [12]): 21; inhibition in vivo at 60 mg/kg (HepG2 [13]): 57.1%; Activity [14]: Non-Toxic; Activity [15]: Non-Toxic; Activity [16]: Non-Toxic; Activity [17]: Non-Toxic; Activity [18]: Non-Toxic; Activity [19]: Non-Toxic; Activity [20]: Non-Toxic; Activity [21]: Toxic
